The record followed here is patent US10800815B2, “Kv1.3 potassium channel antagonists” (cgtx-Peptide Development GmbH, priority 2014, dated 2020).

For one assay, the target named is T1, Kv1.5 (Homo sapiens, UniProt P22460).
T1 construct: expressed in transfected cells; host or cells: Sf21 insect cells, baculovirus infection
Description: Patch-clamp measurement of Kv1.5 channel inhibition (Example 1). It is filed as cell-based. Conditions: up to a concentration of 10 μM. On the procedure:
FIGS. 1A-1F Measurement of Kv1.3 (FIGS. 1B and 1E), Kv1.5 (FIGS. 1C and 1F) and Kv1.1 (FIGS. 1A and 1D) channel inhibition by patch-clamp.
Peptides were dissolved at 1 μg/μl in 20 mM NaPO4 buffer pH 8.2 (1 mg in 1 ml folding buffer) and dialysed against the same buffer 3×1 L, Float-a-Lyzer cut off 500 Da (Spectrapor) at room temperature.
HsTx 1 binding was tested at various concentrations of e.g. 100 pM, 1 nM, 10 nM, 50 nM, 100 nM, 500 nM, and 1 μM—depending on the tested channel. Representative measurements for Kv 1.1, Kv1.3 and Kv1.5 are depicted in FIGS. 1 a), 1 b), and 1 c) respectively.
Cgtx-544 binding was tested at various concentrations of e.g. 1 nM, 10 nM, 50 nM, 100 nM, 1 μM, and 5 μM—depending on the tested channel. Representative measurements for Kv1.1, Kv1.3 and Kv1.5 are depicted in FIGS. 1 d), 1e), and 1) f, respectively.

In assay [1] the target is T2, Kv1.3 channels endogenously expressed in TEM cells (Homo sapiens, UniProt P22001).
T2 construct: endogenously expressed Kv1.3 channels in TEM cells; endogenous in cells
T2 sequence (P22001 whole entry): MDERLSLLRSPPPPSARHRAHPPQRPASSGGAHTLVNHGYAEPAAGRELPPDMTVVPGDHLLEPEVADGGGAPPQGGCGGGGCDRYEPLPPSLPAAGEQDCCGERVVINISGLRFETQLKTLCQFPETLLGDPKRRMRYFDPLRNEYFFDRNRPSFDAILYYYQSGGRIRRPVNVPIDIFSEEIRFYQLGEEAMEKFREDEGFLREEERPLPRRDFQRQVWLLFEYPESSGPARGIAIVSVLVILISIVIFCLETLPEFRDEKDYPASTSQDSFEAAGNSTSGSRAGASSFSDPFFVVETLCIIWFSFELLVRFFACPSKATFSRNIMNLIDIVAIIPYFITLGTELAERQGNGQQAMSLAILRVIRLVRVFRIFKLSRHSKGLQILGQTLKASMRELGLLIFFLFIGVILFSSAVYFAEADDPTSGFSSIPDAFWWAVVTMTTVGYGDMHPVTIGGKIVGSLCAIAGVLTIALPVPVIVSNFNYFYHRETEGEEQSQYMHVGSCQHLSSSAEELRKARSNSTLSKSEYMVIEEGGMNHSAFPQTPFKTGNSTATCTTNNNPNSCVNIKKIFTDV
Put plainly: Block of Kv1.3 currents in isolated human TEM cells (Example 4). It is filed as cell-based. Conditions: incompletely folded peptide. From the text: The insect cell line Spodoptera frugiperda (Sf21) was used in combination with a Baculovirus infection system for the heterologous expression of recombinant ion channels. Sf21 cells offer highly specific protein expression and correct posttranslational modifications resulting in functional channels with proposed comparability of electrophysiological parameters of ion channels in vivo. Therefore, it was necessary to compare the electrophysiological properties of the potassium selective ion channel Kv1.3 expressed in Sf21 cells and endogenously expressed Kv1.3 channels in TEM cells.
For the comparison of characteristic voltage dependent Kv1.3 channel activation a typical voltage protocol from −60 mV to +60 mV in 20 mV steps (activation pulse 200 ms) was used. Cells were clamped at a holding potential of −100 mV.
The maximal observed current, which clearly originates from Kv1.3 activity, and the applied voltage allows to assess the total conductivity of all Kv1.3 channels. Accordingly, the number of channels can be extracted using the known conductivity of a single Kv1.3 channel. […] By variation of the infection conditions, it is possible to control the expression level of Kv1.3 in Sf21 cells, according to the needs of the investigation. Under our standard conditions a maximal current of 2-5 nA, a conductance of 33-50 nS and a number of 2500-3800 channels per cell can be estimated. […]

The structures appear in SMILES notation.

T1 sequence (P22460 whole entry): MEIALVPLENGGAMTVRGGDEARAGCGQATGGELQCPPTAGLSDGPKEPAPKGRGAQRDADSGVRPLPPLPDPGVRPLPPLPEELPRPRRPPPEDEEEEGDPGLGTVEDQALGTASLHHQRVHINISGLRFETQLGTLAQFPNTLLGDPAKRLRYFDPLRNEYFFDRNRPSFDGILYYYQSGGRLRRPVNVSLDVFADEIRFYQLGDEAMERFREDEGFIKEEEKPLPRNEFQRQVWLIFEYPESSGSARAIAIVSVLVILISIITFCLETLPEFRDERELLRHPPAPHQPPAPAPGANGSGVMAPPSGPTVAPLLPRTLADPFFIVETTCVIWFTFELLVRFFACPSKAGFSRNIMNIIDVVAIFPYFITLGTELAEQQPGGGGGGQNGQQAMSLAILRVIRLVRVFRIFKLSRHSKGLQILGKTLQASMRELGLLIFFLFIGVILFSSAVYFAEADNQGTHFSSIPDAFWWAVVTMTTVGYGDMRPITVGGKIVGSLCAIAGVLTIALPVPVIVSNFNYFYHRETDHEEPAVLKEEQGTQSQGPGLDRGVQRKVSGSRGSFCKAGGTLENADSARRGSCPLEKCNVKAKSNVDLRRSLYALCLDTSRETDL

On to `CC[C@H](C)[C@H](NC(=O)[C@@H](N)[C@@H](C)O)C(=O)N[C@H](C(=O)N[C@@H](CC(N)=O)C(=O)N[C@H](C(=O)N[C@@H](CCCCN)C(=O)N[C@H]1CSSC[C@@H]2NC(=O)[C@H](CCCCN)NC(=O)CNC(=O)[C@H](Cc3ccc(O)cc3)NC(=O)[C@@H]3CCCN3C(=O)[C@@H]3CSSC[C@@H](C(=O)O)NC(=O)[C@H](CCCNC(=N)N)NC(=O)[C@H](CC(N)=O)NC(=O)[C@@H]4CSSC[C@H](NC(=O)[C@@H]5CCCN5C(=O)[C@@H]5CCCN5C(=O)[C@H](CC(C)C)NC(=O)[C@H](CSSC[C@H](NC(=O)[C@H](CCCCN)NC(=O)[C@H](CCCNC(=N)N)NC(=O)[C@H](CC(N)=O)NC(=O)[C@H](CCSC)NC2=O)C(=O)N[C@@H](CCCCN)C(=O)N4)NC(=O)[C@H](CCC(N)=O)NC(=O)[C@H](CCCCN)NC(=O)[C@@H]2CCCN2C(=O)[C@H](CO)NC(=O)[C@H]([C@@H](C)O)NC1=O)C(=O)N[C@@H](CCCCN)C(=O)N[C@@H](C)C(=O)N[C@@H](CCC(N)=O)C(=O)N[C@@H]([C@@H](C)O)C(=O)NCC(=O)N3)C(C)C)[C@@H](C)CC` [Compound 7], for which the “binding to Kv1.5” value at Kv1.5 is “no binding”. Also, the “Kv1.3 block on human TEM cells compared with Kv1.3 transfected Sf21 cells” value in assay [1] is given as “the same values”.
